Like-named read-outs stand apart in the source and are kept apart here.
Tested on: Escherichia coli ATCC 25922
Experiment: 50% growth inhibitory concentration (IC50) determination, Iso-Sensitest broth dilution
Assay type: cell-based
Conditions: strain Escherichia coli ATCC 25922, 10-point broth dilution, optical density at 600 nm over 16 h, read-out: Escherichia coli growth inhibition IC50
How it was run: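 Growth was tracked as optical density at 600 nm every 20 minutes for 16 h at 35±2° C. Compounds from DMSO stocks were serially diluted twofold over 10 points (e.g. 50–0.097 μM final) in Iso-Sensitest broth. Inhibition computed in log-phase growth to give IC50.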

[1] = Escherichia coli, ATCC25922, 16 h

SMILES | IC50 | IC50 [1]
N#Cc1cccc2c1CC(NC1CCC3(CN(c4ccc5c(n4)NC(=O)CO5)C(=O)O3)C(N)C1)C2 (racemic) [Example 241, 2-[[rac-5,6-trans-5,8-cis-6-Amino-2-oxo-3-(3-oxo-4H-pyrido[3,2-b][1,4]oxazin-6-yl)-1-oxa-3-azaspiro[4.5]decan-8-yl]amino]-2,3-dihydro-1H-indene-4-carbonitrile; formic acid] | 509 nM | 
O=C1COc2ccc(N3CC(CCNCC4Cc5cccc(Cl)c5C4)OC3=O)nc2N1 (single isomer, unassigned; isomer a) [Example 6, 6-[5-[2-[(4-chloro-2,3-dihydro-1H-inden-2-yl)methylamino]ethyl]-2-oxo-1,3-oxazolidin-3-yl]-4H-pyrido[3,2-b][1,4]oxazin-3-one, Isomer A] |  | < 97.7 nM
Cc1nccc2c1CC(CNCCC1CN(c3cnc4c(n3)NC(=O)CO4)C(=O)O1)C2 (centres unmarked) [Example 279, 6-[5-[2-[(1-methyl-6,7-dihydro-5H-cyclopenta[c]pyridin-6-yl)methylamino]ethyl]-2-oxo-1,3-oxazolidin-3-yl]-4H-pyrazino [2,3-b][1,4]oxazin-3-one; formic acid] |  | < 97.7 nM
Cc1nc(OCC2CNC(=O)C2)c(C)c2c1CC(CNCCC1CN(c3ccc4c(n3)NC(=O)CO4)C(=O)O1)C2 (centres unmarked) [Example 102, 6-[5-[2-[[1,4-dimethyl-3-[(5-oxopyrrolidin-3-yl)methoxy]-6,7-dihydro-5H-cyclopenta[c]pyridin-6-yl]methylamino]ethyl]-2-oxo-1,3-oxazolidin-3-yl]-4H-pyrido[3,2-b][1,4]oxazin-3-one] |  | 871 nM
NC1c2cccc(Cl)c2CC1CNC1CC2(C1)CN(c1ccc3c(n1)NC(=O)CO3)C(=O)O2 (racemic) [Example 210, 2,4-cis-6-[6-oxo-2-[[rac-1,2-trans-1-amino-4-chloro-2,3-dihydro-1H-inden-2-yl]methylamino]-5-oxa-7-azaspiro[3.4]octan-7-yl]-4H-pyrido[3,2-b][1,4]oxazin-3-one] |  | 295 nM
O=C1COc2ccc(N3C[C@H](NC4CC(NC5Cc6cccc(F)c6C5)C4)CC3=O)nc2N1 (stereo partly drawn) [Example 23, 6-[(4R)-4-[[3-[(4-fluoro-2,3-dihydro-1H-inden-2-yl)amino]cyclobutyl]amino]-2-oxopyrrolidin-1-yl]-4H-pyrido[3,2-b][1,4]oxazin-3-one; formic acid] |  | 2170 nM
Cc1ncc(F)c2c1CC(CN[C@H]1C[C@H](C3CN(c4cnc5c(n4)NC(=O)CO5)C(=O)O3)C1)C2 (stereo partly drawn) [Example 361, 6-[5-[trans-3-[(4-fluoro-1-methyl-6,7-dihydro-5H-cyclopenta[c]pyridin-6-yl)methylamino]cyclobutyl]-2-oxo-1,3-oxazolidin-3-yl]-4H-pyrazino[2,3-b][1,4]oxazin-3-one] |  | 336 nM
CC(C)(N)COc1cc(F)c2c(c1)CC(CNCC[C@H]1CN(c3cnc4c(n3)NC(=O)CO4)C(=O)O1)C2 (stereo partly drawn) [Example 341, 6-[(5S)-5-[2-[[6-(2-amino-2-methylpropoxy)-4-fluoro-2,3-dihydro-1H-inden-2-yl]methylamino]ethyl]-2-oxo-1,3-oxazolidin-3-yl]-4H-pyrazino[2,3-b][1,4]oxazin-3-one; formic acid] |  | < 97.7 nM
O=C1COc2ccc(N3CC(NCCNC4Cc5cccc(F)c5C4)CC3=O)nc2N1 (centres unmarked) [Example 120, 6-[4-[2-[(4-fluoro-2,3-dihydro-1H-inden-2-yl)amino]ethylamino]-2-oxopyrrolidin-1-yl]-4H-pyrido[3,2-b][1,4]oxazin-3-one; formic acid] |  | 440 nM
N#CCOc1cc(F)c2c(c1)CC(CNCCC1CN(c3ccc4c(n3)NC(=O)CO4)C(=O)O1)C2 (centres unmarked) [Example 73, 2-[[7-fluoro-2-[[2-[2-oxo-3-(3-oxo-4H-pyrido[3,2-b][1,4]oxazin-6-yl)-1,3-oxazolidin-5-yl]ethylamino]methyl]-2,3-dihydro-1H-inden-5-yl]oxy]acetonitrile; formic acid] |  | < 97.7 nM
N[C@H](CO)COc1ncc2c(c1Cl)CC(CNCCC1CN(c3ccc4c(n3)NC(=O)CO4)C(=O)O1)C2 (stereo partly drawn) [Example 237, 6-[5-[2-[[4-Chloro-3-[(2R)-2-amino-3-hydroxypropoxy]-6,7-dihydro-5H-cyclopenta[c]pyridin-6-yl]methylamino]ethyl]-2-oxo-1,3-oxazolidin-3-yl]-4H-pyrido[3,2-b][1,4]oxazin-3-one] |  | 140 nM

From patent US20230167127A1, “COMPOUNDS AND THEIR USE IN THE TREATMENT OF BACTERIAL INFECTION” (Hoffmann-La Roche Inc., priority 2020, published 2023)
